Drawing on patent publication US12655125B2 (SIRONAX LTD., priority 2020, dated 2026), this text covers EC50 for 18 compounds.

Molecules are shown by their SMILES.

This assay has as its system HT-29 cells. Kind of assay: HT29 Cells 0FBS Assay In Vitro (TNF-α/SMAC mimetic/zVAD-FMK induced necroptosis, CellTiter-Glo cell viability). The assay is classed as cell-based. Particulars: Homo sapiens; HT-29 cells, FBS free medium, TNF-α (10 ng/ml), SMAC mimetic (6 uM), zVAD-FMK (10 μM), 20 hours; geometric mean EC50; read-out: Cell activity (EC50) of Compounds 1-116. The procedure, abridged:
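Viability was measured by ATP luminescence (CellTiter-Glo) after 20 h at 37° C of compound exposure in 10-point, 1:3 dilutions. Necroptosis in FBS-free HT-29 cultures was driven by a TNF-α (10 ng/ml), SMAC mimetic (6 μM) and zVAD-FMK (10 μM) cocktail. EC50 values are geometric means from duplicate curves.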
A general note: ATP-based viability assays read luminescence as a measure of living cells.
`COCc1cnn(C)c1-c1cc(OC2CN(C(=O)N3N=CC[C@H]3c3cc(F)cc(F)c3)C2)c(F)cn1` [compound 80, (S)-(5-(3,5-difluorophenyl)-4,5-dihydro-1H-pyrazol-1-yl)(3-((5-fluoro-2-(4-(methoxymethyl)-1-methyl-1H-pyrazol-5-yl)pyridin-4-yl)oxy)azetidin-1-yl)methanone]: the EC50 (commonly the concentration needed to bring the measured effect to its halfway point) was 0.0001 to 0.1 µM.
In the case of `Cn1ncc(F)c1-c1cc(OC2CN(C(=O)N3N=CC[C@H]3c3cc(F)cc(F)c3)C2)c(F)cn1` [compound 81, (S)-(5-(3,5-difluorophenyl)-4,5-dihydro-1H-pyrazol-1-yl)(3-((5-fluoro-2-(4-fluoro-1-methyl-1H-pyrazol-5-yl)pyridin-4-yl)oxy)azetidin-1-yl)methanone] it was 0.0001 to 0.1 µM.
In the case of `Cn1ncc(F)c1-c1ncc(F)c(OC2CN(C(=O)N3N=CC[C@H]3c3cc(F)cc(F)c3)C2)n1` [compound 82, (S)-(5-(3,5-difluorophenyl)-4,5-dihydro-1H-pyrazol-1-yl)(3-((5-fluoro-2-(4-fluoro-1-methyl-1H-pyrazol-5-yl)pyrimidin-4-yl)oxy)azetidin-1-yl)methanone] it was 0.0001 to 0.1 µM; in that of `Cn1ncc(Cl)c1-c1cc(OC2CN(C(=O)N3N=CC[C@H]3c3cc(F)cc(F)c3)C2)c(F)cn1` [compound 83, (S)-(3-((2-(4-chloro-1-methyl-1H-pyrazol-5-yl)-5-fluoropyridin-4-yl)oxy)azetidin-1-yl)(5-(3,5-difluorophenyl)-4,5-dihydro-1H-pyrazol-1-yl)methanone], 0.0001 to 0.1 µM; in that of `Cn1ncc(Cl)c1-c1ncc(F)c(OC2CN(C(=O)N3N=CC[C@H]3c3cc(F)cc(F)c3)C2)n1` [compound 84, (S)-(3-((2-(4-chloro-1-methyl-1H-pyrazol-5-yl)-5-fluoropyrimidin-4-yl)oxy)azetidin-1-yl)(5-(3,5-difluorophenyl)-4,5-dihydro-1H-pyrazol-1-yl)methanone], 0.0001 to 0.1 µM.
Take `Cc1n[nH]cc1-c1cc(OC2CN(C(=O)N3N=CC[C@H]3c3cc(F)cc(F)c3)C2)c(F)cn1` [compound 85, (S)-(5-(3,5-difluorophenyl)-4,5-dihydro-1H-pyrazol-1-yl)(3-((5-fluoro-2-(3-methyl-1H-pyrazol-4-yl)pyridin-4-yl)oxy)azetidin-1-yl)methanone]: the EC50 lay within 0.0001 to 0.1 µM.
The result for `COCCn1cc(-c2cc(OC3CN(C(=O)N4N=CC[C@H]4c4cc(F)cc(F)c4)C3)c(F)cn2)c(C)n1` [compound 86, (S)-(5-(3,5-difluorophenyl)-4,5-dihydro-1H-pyrazol-1-yl)(3-((5-fluoro-2-(1-(2-methoxyethyl)-3-methyl-1H-pyrazol-4-yl)pyridin-4-yl)oxy)azetidin-1-yl)methanone] reads 0.0001 to 0.1 µM.
The result for `O=C(N1CC(Oc2nc(-c3ccn[nH]3)ncc2F)C1)N1N=CC[C@H]1c1cc(F)cc(F)c1` [compound 87, (S)-(5-(3,5-difluorophenyl)-4,5-dihydro-1H-pyrazol-1-yl)(3-((5-fluoro-2-(1H-pyrazol-5-yl)pyrimidin-4-yl)oxy)azetidin-1-yl)methanone] reads 0.0001 to 0.1 µM.
Turning to `NC(=O)Cn1nccc1-c1ncc(F)c(OC2CN(C(=O)N3N=CC[C@H]3c3cc(F)cc(F)c3)C2)n1` [compound 88, (S)-2-(5-(4-((1-(5-(3,5-difluorophenyl)-4,5-dihydro-1H-pyrazole-1-carbonyl)azetidin-3-yl)oxy)-5-fluoropyrimidin-2-yl)-1H-pyrazol-1-yl)acetamide], the EC50 lay in the range of 0.1 to 1 µM.
The result for `NC(=O)Cn1ccc(-c2ncc(F)c(OC3CN(C(=O)N4N=CC[C@H]4c4cc(F)cc(F)c4)C3)n2)n1` [compound 89, (S)-2-(3-(4-((1-(5-(3,5-difluorophenyl)-4,5-dihydro-1H-pyrazole-1-carbonyl)azetidin-3-yl)oxy)-5-fluoropyrimidin-2-yl)-1H-pyrazol-1-yl)acetamide] reads 0.1 to 1 µM; that for `Cc1[nH]ncc1-c1ncc(F)c(OC2CN(C(=O)N3N=CC[C@H]3c3cc(F)cc(F)c3)C2)n1` [compound 90, (S)-(5-(3,5-difluorophenyl)-4,5-dihydro-1H-pyrazol-1-yl)(3-((5-fluoro-2-(5-methyl-1H-pyrazol-4-yl)pyrimidin-4-yl)oxy)azetidin-1-yl)methanone], 0.0001 to 0.1 µM; that for `Cc1n[nH]c(C)c1-c1ncc(F)c(OC2CN(C(=O)N3N=CC[C@H]3c3cc(F)cc(F)c3)C2)n1` [compound 91, (S)-(5-(3,5-difluorophenyl)-4,5-dihydro-1H-pyrazol-1-yl)(3-((2-(3,5-dimethyl-1H-pyrazol-4-yl)-5-fluoropyrimidin-4-yl)oxy)azetidin-1-yl)methanone], 0.0001 to 0.1 µM.
The result for `Cc1n[nH]c(C)c1-c1cc(OC2CN(C(=O)N3N=CC[C@H]3c3cc(F)cc(F)c3)C2)c(F)cn1` [compound 92, (S)-(5-(3,5-difluorophenyl)-4,5-dihydro-1H-pyrazol-1-yl)(3-((2-(3,5-dimethyl-1H-pyrazol-4-yl)-5-fluoropyridin-4-yl)oxy)azetidin-1-yl)methanone] reads 0.0001 to 0.1 µM; that for `COCCn1nc(C)c(-c2cc(OC3CN(C(=O)N4N=CC[C@H]4c4cc(F)cc(F)c4)C3)c(F)cn2)c1C` [compound 93, (S)-(5-(3,5-difluorophenyl)-4,5-dihydro-1H-pyrazol-1-yl)(3-((5-fluoro-2-(1-(2-methoxyethyl)-3,5-dimethyl-1H-pyrazol-4-yl)pyridin-4-yl)oxy)azetidin-1-yl)methanone], 0.0001 to 0.1 µM; that for `Cc1nn(CC(N)=O)c(C)c1-c1cc(OC2CN(C(=O)N3N=CC[C@H]3c3cc(F)cc(F)c3)C2)c(F)cn1` [compound 94, (S)-2-(4-(4-((1-(5-(3,5-difluorophenyl)-4,5-dihydro-1H-pyrazole-1-carbonyl)azetidin-3-yl)oxy)-5-fluoropyridin-2-yl)-3,5-dimethyl-1H-pyrazol-1-yl)acetamide], 0.0001 to 0.1 µM.
The result for `Cc1nn(CC(=O)N(C)C)c(C)c1-c1cc(OC2CN(C(=O)N3N=CC[C@H]3c3cc(F)cc(F)c3)C2)c(F)cn1` [compound 95, (S)-2-(4-(4-((1-(5-(3,5-difluorophenyl)-4,5-dihydro-1H-pyrazole-1-carbonyl)azetidin-3-yl)oxy)-5-fluoropyridin-2-yl)-3,5-dimethyl-1H-pyrazol-1-yl)-N,N-dimethylacetamide] reads 0.0001 to 0.1 µM.
As to `Cc1nn(CC(=O)N2CCOCC2)c(C)c1-c1cc(OC2CN(C(=O)N3N=CC[C@H]3c3cc(F)cc(F)c3)C2)c(F)cn1` [compound 96, (S)-2-(4-(4-((1-(5-(3,5-difluorophenyl)-4,5-dihydro-1H-pyrazole-1-carbonyl)azetidin-3-yl)oxy)-5-fluoropyridin-2-yl)-3,5-dimethyl-1H-pyrazol-1-yl)-1-morpholinoethan-1-one], the EC50 is 0.0001 to 0.1 µM.
On to `CNC(=O)Cn1nc(C)c(-c2cc(OC3CN(C(=O)N4N=CC[C@H]4c4cc(F)cc(F)c4)C3)c(F)cn2)c1C` [compound 97, (S)-2-(4-(4-((1-(5-(3,5-difluorophenyl)-4,5-dihydro-1H-pyrazole-1-carbonyl)azetidin-3-yl)oxy)-5-fluoropyridin-2-yl)-3,5-dimethyl-1H-pyrazol-1-yl)-N-methylacetamide], for which the EC50 lay within 0.0001 to 0.1 µM.
